SMILES strings stand for the structures.

The assay deals with T1, KCNT1 (KNa1.1, Slack) (Homo sapiens, UniProt Q5JUK3).
T1 construct: expressed in transfected cells; host or cells: HEK-TREX (tetracycline-inducible HEK cell line)
T1 sequence (Q5JUK3 1-1230): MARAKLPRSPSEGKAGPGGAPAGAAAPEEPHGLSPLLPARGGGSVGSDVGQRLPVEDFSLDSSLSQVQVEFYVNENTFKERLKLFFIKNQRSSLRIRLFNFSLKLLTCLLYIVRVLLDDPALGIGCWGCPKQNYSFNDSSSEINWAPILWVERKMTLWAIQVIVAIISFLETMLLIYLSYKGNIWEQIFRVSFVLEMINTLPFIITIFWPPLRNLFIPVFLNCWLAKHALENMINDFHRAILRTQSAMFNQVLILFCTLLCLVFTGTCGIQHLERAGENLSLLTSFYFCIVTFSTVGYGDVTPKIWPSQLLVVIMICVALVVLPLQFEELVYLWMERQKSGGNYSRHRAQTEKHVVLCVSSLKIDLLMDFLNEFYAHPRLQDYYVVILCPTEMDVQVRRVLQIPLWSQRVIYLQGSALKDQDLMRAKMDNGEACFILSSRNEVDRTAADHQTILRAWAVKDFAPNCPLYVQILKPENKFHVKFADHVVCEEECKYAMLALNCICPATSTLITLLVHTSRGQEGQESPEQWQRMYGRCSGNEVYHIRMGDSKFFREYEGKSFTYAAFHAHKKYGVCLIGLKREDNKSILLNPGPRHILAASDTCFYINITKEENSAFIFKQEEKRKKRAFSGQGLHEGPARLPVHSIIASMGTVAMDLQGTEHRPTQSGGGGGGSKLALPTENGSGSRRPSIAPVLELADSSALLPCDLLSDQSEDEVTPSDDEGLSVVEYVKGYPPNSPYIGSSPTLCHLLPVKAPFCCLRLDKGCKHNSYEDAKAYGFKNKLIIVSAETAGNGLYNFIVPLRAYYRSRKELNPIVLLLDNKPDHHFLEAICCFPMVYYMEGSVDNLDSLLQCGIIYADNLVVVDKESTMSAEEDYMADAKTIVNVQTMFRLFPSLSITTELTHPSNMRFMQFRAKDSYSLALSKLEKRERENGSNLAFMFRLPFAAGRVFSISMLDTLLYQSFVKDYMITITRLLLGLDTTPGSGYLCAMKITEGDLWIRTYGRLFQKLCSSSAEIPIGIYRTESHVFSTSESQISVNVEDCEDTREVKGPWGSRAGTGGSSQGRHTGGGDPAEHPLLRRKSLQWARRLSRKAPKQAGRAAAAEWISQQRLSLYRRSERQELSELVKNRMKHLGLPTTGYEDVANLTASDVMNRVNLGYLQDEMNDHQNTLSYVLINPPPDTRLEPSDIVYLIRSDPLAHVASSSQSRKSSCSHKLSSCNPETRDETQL
The experiment in a line: KCNT1-WT-Basal patch clamp assay (SyncroPatch 384PE, HEK-TREX inducible cell line). In kind it is cell-based. To be noted: tetracycline inducible HEK-TREX cells; perforated patch; holding -80 mV, 100 ms step to 0 mV; room temperature; read-out: KCNT1 WB IC50. The protocol:
KCNT1-WT-Basal—Patch Clamp Assay
Inhibition of KCNT1 (KNa1.1, Slack) was evaluated using a tetracycline inducible cell line (HEK-TREX). Currents were recorded using the SyncroPatch 384PE automated, patch clamp system. Pulse generation and data collection were performed with PatchController384 V1.3.0 and DataController384 V1.2.1 (Nanion Technologies). The access resistance and apparent membrane capacitance were estimated using built-in protocols. Current were recorded in perforated patch mode (10 μM escin) from a population of cells. The cells were lifted, triturated, and resuspended at 800,000 cells/ml. The cells were allowed to recover in the cell hotel prior to experimentation. Currents were recorded at room temperature. The external solution contained the following (in mM): NaCl 105, NMDG 40, KCl 4, MgCl2 1, CaCl2 5 and HEPES 10 (pH=7.4, Osmolarity ˜300 mOsm). The extracellular solution was used as the wash, reference and compound delivery solution. The internal solution contained the following (in mM): NaCl 70, KF 70, KCl 10, EGTA 5, HEPES 5 and Escin 0.01 (pH=7.2, Osmolarity ˜295 mOsm). Escin is made at a 5 mM stock in water, aliquoted, and stored at −20° C. The compound plate was created at 2× concentrated in the extracellular solution. The compound was diluted to 1:2 when added to the recording well. The amount of DMSO in the extracellular solution was held constant at the level used for the highest tested concentration. A holding potential of −80 mV with a 100 ms step to 0 mV was used. Mean current was measured during the step to 0 mV. […] The average mean current from 3 sweeps was calculated and the % inhibition of each compound was calculated. The % Inhibition as a function of the compound concentration was fit with a Hill equation to derive IC50, slope, min and max parameters. If KCNT1 inhibition was less than 50% at the highest tested concentration or if an IC50 could not be calculated, then a percent inhibition was reported in place of the IC50.
(In general: In patch-clamp work, channel activity is measured electrically.)

In general, IC50 refers to the concentration that gives 50% inhibition. For `CNS(=O)(=O)c1ccc(C(=O)N[C@H]2CCCc3cc(Cl)ccc32)s1` (single isomer, unassigned) [Compound I-22], the IC50 is at most 1 µM. The value for `CNS(=O)(=O)c1ccc(C(=O)N[C@@H]2CCCc3cc(Cl)ccc32)s1` (single isomer, unassigned) [Compound I-23] was 1 to 20 µM; that for `CS(=O)(=O)c1ccc(C(=O)N[C@H]2CCCc3cc(Cl)ccc32)s1` (single isomer, unassigned) [Compound I-24] was at most 1 µM. With `CS(=O)(=O)c1ccc(C(=O)N[C@@H]2CCCc3cc(Cl)ccc32)s1` (single isomer, unassigned) [Compound I-25], the IC50 is at least 20 µM. The value for `NC(=O)c1ccc(C(=O)N[C@H]2CCCc3cc(Cl)ccc32)s1` (single isomer, unassigned) [Compound I-30] was at least 20 µM; that for `NC(=O)c1ccc(C(=O)N[C@@H]2CCCc3cc(Cl)ccc32)s1` (single isomer, unassigned) [Compound I-31] was at most 1 µM. With `NS(=O)(=O)c1ccc(C(=O)N[C@H]2CCCc3cc(Cl)ccc32)s1` (single isomer, unassigned) [Compound I-32], the half-maximal inhibitory concentration (IC50) is at most 1 µM. For the molecule `NS(=O)(=O)c1ccc(C(=O)N[C@@H]2CCCc3cc(Cl)ccc32)s1` (single isomer, unassigned) [Compound I-33], the IC50 was at least 20 µM. The value for `CN(c1ccc(C(=O)NC2CCc3cc(Cl)ccc32)cc1)S(C)(=O)=O` (single isomer, unassigned) [Compound II-1, N-(5-chloroindan-1-yl)-4-[methyl(methylsulfonyl)amino]benzamide] was at least 20 µM; that for `CN(c1ccc(C(=O)NC2CCc3cc(Cl)ccc32)cc1)S(C)(=O)=O` (single isomer, unassigned) [Compound II-2, N-(5-chloroindan-1-yl)-4-[methyl(methylsulfonyl)amino]benzamide] was at most 1 µM. The value for `CS(=O)(=O)Cc1ccc(C(=O)NC2CCc3cc(Cl)ccc32)cc1` (single isomer, unassigned) [Compound II-5, N-(5-chloroindan-1-yl)-4-(methylsulfonylmethyl)benzamide] was at least 20 µM; that for `CS(=O)(=O)Cc1ccc(C(=O)NC2CCc3cc(Cl)ccc32)cc1` (single isomer, unassigned) [Compound II-6, N-(5-chloroindan-1-yl)-4-(methylsulfonylmethyl)benzamide] was 1 to 20 µM; that for `COc1ccc(C(=O)NC2CCc3cc(Cl)ccc32)cc1` (single isomer, unassigned) [Compound II-7, N-(5-chloroindan-1-yl)-4-methoxy-benzamide] was at least 20 µM. As for `COc1ccc(C(=O)NC2CCc3cc(Cl)ccc32)cc1` (single isomer, unassigned) [Compound II-8, N-(5-chloroindan-1-yl)-4-methoxy-benzamide], the figure is 1 to 20 µM; as for `Nc1ccc(C(=O)N[C@H]2CCc3cc(Cl)ccc32)cc1` (single isomer, unassigned) [Compound II-16], at least 20 µM.

Take `O=C(N[C@@H]1CCc2cc(Cl)ccc21)c1ccc(F)cc1` (single isomer, unassigned) [Compound II-31]: the IC50 is at least 20 µM.

Regarding `O=C(N[C@H]1CCc2cc(Cl)ccc21)c1ccc(F)cc1` (single isomer, unassigned) [Compound II-41], the IC50 is at least 20 µM. The value for `CS(=O)(=O)Nc1ccc(C(=O)NC2CCCc3cc(Cl)ccc32)cc1` (single isomer, unassigned) [Compound II-52, N-(6-chlorotetralin-1-yl)-4-(methanesulfonamido)benzamide] was at least 20 µM. The value for `CS(=O)(=O)Nc1ccc(C(=O)NC2CCCc3cc(Cl)ccc32)cc1` (single isomer, unassigned) [Compound II-53, N-(6-chlorotetralin-1-yl)-4-(methanesulfonamido)benzamide] was at most 1 µM.

`CS(=O)(=O)c1ccc(C(=O)N[C@H]2CCCc3cc(Cl)ccc32)cc1` (single isomer, unassigned) [Compound II-55]: the half-inhibitory concentration (IC50) is 1 to 20 µM. As for `CS(=O)(=O)Nc1ccc(C(=O)NC2CCc3cc(C(F)(F)F)ccc32)cc1` (single isomer, unassigned) [Compound II-56, 4-(methanesulfonamido)-N-[5-(trifluoromethyl)indan-1-yl]benzamide], the figure is at most 1 µM.

For the molecule `CS(=O)(=O)Nc1ccc(C(=O)NC2CCc3cc(F)ccc32)cc1` (single isomer, unassigned) [Compound II-57, N-[5-fluoroindan-1-yl]-4-(methanesulfonamido)benzamide], the IC50 lay in the range of 1 to 20 µM. Turning to `CS(=O)(=O)Nc1ccc(C(=O)NC2CCc3cc(C(F)(F)F)ccc32)cc1` (single isomer, unassigned) [Compound II-58, 4-(methanesulfonamido)-N-[5-(trifluoromethyl)indan-1-yl]benzamide], the IC50 was above 20 µM. The value for `CS(=O)(=O)Nc1ccc(C(=O)NC2CCc3cc(F)ccc32)cc1` (single isomer, unassigned) [Compound II-59, N-[5-fluoroindan-1-yl]-4-(methanesulfonamido)benzamide] was above 20 µM.

In the case of `COc1ccc(C(=O)NC2CCc3cc(Cl)ccc32)c(O)c1` (single isomer, unassigned) [Compound III-1, N-(5-chloroindan-1-yl)-2-hydroxy-4-methoxy-benzamide], the IC50 is above 20 µM. On to `COc1ccc(C(=O)NC2CCc3cc(Cl)ccc32)c(O)c1` (single isomer, unassigned) [Compound III-2, N-(5-chloroindan-1-yl)-2-hydroxy-4-methoxy-benzamide], for which the IC50 was at most 1 µM.

Consider `Cn1nc(C(=O)N[C@@H]2CCc3cc(Cl)ccc32)cc1C1CC1` [Compound I-1], for which the 50% inhibitory concentration (IC50) fell in the range of 1 to 20 µM.

As for `Cn1nc(C2CC2)cc1C(=O)N[C@@H]1CCc2cc(Cl)ccc21` [Compound I-2], the IC50 was in the range of 1 to 20 µM. As for `NS(=O)(=O)c1ccc(C(=O)N[C@@H]2CCc3cc(Cl)ccc32)o1` [Compound I-3], the figure is 1 to 20 µM. The value for `NS(=O)(=O)c1ccc(C(=O)N[C@@H]2CCc3cc(Cl)ccc32)s1` [Compound I-4] was at most 1 µM; that for `NS(=O)(=O)c1csc(C(=O)N[C@@H]2CCc3cc(Cl)ccc32)c1` [Compound I-5] was 1 to 20 µM. As for `NS(=O)(=O)c1cc(C(=O)N[C@@H]2CCc3cc(Cl)ccc32)cs1` [Compound I-6], the figure is at most 1 µM; as for `Cn1cc(S(N)(=O)=O)cc1C(=O)N[C@@H]1CCc2cc(Cl)ccc21` [Compound I-7], at least 20 µM. With `Cc1sc(C(=O)N[C@@H]2CCc3cc(Cl)ccc32)cc1S(N)(=O)=O` [Compound I-8], the IC50 was 1 to 20 µM. As for `Cc1oc(C(=O)N[C@@H]2CCc3cc(Cl)ccc32)cc1S(N)(=O)=O` [Compound I-9], the figure is 1 to 20 µM.

Source of the values: US20220280476A1, “KCNT1 INHIBITORS AND METHODS OF USE” (Praxis Precision Medicines, Inc., priority 2019, published 2022).
